In patent publication US20230338463A1, “ICD PEPTIDE AND USE THEREOF FOR HAVING CYTOTOXIC ACTIVITY ON CANCER CELLS” (NATIONAL TSING HUA UNIVERSITY, priority 2022, published 2023):
Non-standard residues stand in square brackets, D forms with d. Residues, ends and D or L forms follow the SMILES beside them. 2Nal = N[C@@H](Cc1ccc2ccccc2c1)C(=O)O

Experiments:
MN-11 cells [1] = test: DCFDA cellular ROS detection, MN-11; format: cell-based, murine; settings: MN-11, 2 × IC50, 2-hour treatment
Experimental: However, MN-11 cells were seeded at the density of 25,000 cells/well in the 96-well black plate and allowed to adhere for 24 hours. Cells were washed with a 100 µL/well of PBS to remove the RPMI 1640 medium, and incubated with 100 µL of the 25 µM DCFDA solution for 45 minutes at 37° C. in the dark condition. 100 µL/ well of PBS buffer was washed again for the removal of 25 µM DCFDA solution. The MN-11 cells were treated with Nal-P-113, Bip-P-113 and Dip-P-113 at 2× IC50 for 2 hours. Cells incubated with DMEM without phenol red was used as negative control, and the positive control was tertbutyl hydroperoxide (TBHP) diluted in the 1x Supplemented Buffer. The fluorescence intensity of cellular ROS was determined to an excitation wavelength of 485 nm and an emission wavelength of 535 nm on the Wallac VICTOR 3 Multilabel plate reader (PerkinElmer, Shelton, CT, USA).

MN-11 cells [2] = test: PI/Hoechst 33342 staining, plasma membrane integrity; format: cell-based, murine; settings: MN-11, 2× IC50, 2 hrs, data not shown
Experimental: To examine the membrane-lytic activities of peptides, the PI/Hoechst 33342 staining was performed in this embodiment. The PI dye was used to stain damaged/dead cells, and Hoechst 33342 was used to specifically stain the nuclei of living cells. MN-11 cells were seeded at 50,000 cells/well in a RPMI medium and allowed to adhere for 24 hours. Then the cells were replaced with serum-free RPMI medium, and then treated with 2× IC50 peptides at 37° C. for 2 hrs. DMEM medium without peptide was used as negative control. The PI and Hoechst 33342 were added at a final concentration of 1 µg/ml for 20 mins. The cells were observed using the inverted fluorescent microscope Zeiss equipped with a 40× oil objective lens (Carl Zeiss, Germany). The experiments were repeated three times independently
To examine the membrane-lytic activities of Nal-P-113, Bip-P-113, and Dip-P-113, the DNA binding fluorescent dye Propidium iodide (PI) was used to stain damaged/dead cells, and Hoechst 33342 was used to specifically stain the nuclei of living cells.

PC 9 cells = test: Extracellular HMGB1 Western blot, PC 9; format: cell-based, human
Experimental: HMGB 1 is a chromatin-binding protein and plays an important role as an indicator in the peptide induced immunogenic cell death. In one embodiment, the PC 9 cells were seeded at the density of 2 × 10^4 cells/well under the culture condition in 6-well plate as mentioned earlier in the cell viability determination and left to adhere for 48 hrs. The cells were treated with 56.22 µM of SEQ ID NO:3, 128.38 µM of SEQ ID NO:4 and 142.9 µM of SEQ ID NO: 5 peptides which is the two-fold IC50 concentration for 1 hour (FIG. 4A), 2 hour (FIG. 4B), 4 hour (FIG. 4C) under the incubation condition of humidified 5% CO2 and 37° C. The ICD peptides used were dissolved thoroughly in the serum-free medium (RPMI 1640) before treating the cells.
After the treatment of ICD peptides, the supernatant and lysate of the cells were collected separately for the further experiment. The supernatant was centrifuged at the speed of 1,500 RCF while the cell lysate was undergoing the centrifugation at 14,000 rpm for 5 minutes under the temperature of 4° C. Then, the pellet collected from the supernatant and supernatant of centrifuged cell lysate were discarded. The harvested pellet of cell lysate was washed twice using 200 µL PBS each time preliminarily the sonication of the pellet using bio-disruptor. The disrupted pellet was centrifuged again for 10 minutes under 14,000 rpm and 4° C.
The concentration of the samples was quantified using the commercially available protein quantification assay such as Bradford assay to make sure the amount of the protein was equally loaded in each of the well for SDS-PAGE gel.
The transfer process from polyacrylamide gel to PVDF membrane was performing for 75 minutes under 30 V and 400 mA as well as semi-dry condition. PBST buffer was used to wash the PVDF membrane three times after the transfer process.
The anti-HMGB1 antibody (Abcam, Cambridge, UK, ab18256) will be the primary antibody and incubated overnight at 4° C. in the dilution ratio of 1: 1000. […]

CC(=O)N[C@@H](C)C(=O)N[C@@H](CCCCN)C(=O)N[C@@H](CCCNC(=N)N)C(=O)N[C@@H](Cc1ccc2ccccc2c1)C(=O)N[C@@H](Cc1ccc2ccccc2c1)C(=O)NCC(=O)N[C@@H](Cc1ccc(O)cc1)C(=O)N[C@@H](CCCCN)C(=O)N[C@@H](CCCNC(=N)N)C(=O)N[C@@H](CCCCN)C(=O)N[C@@H](Cc1ccccc1)C(=O)N[C@@H](Cc1ccc2ccccc2c1)C(N)=O [SEQ ID NO:3, Ac-AKR Nal Nal GYKRKFNal-NH2] (Ac-AKR[2Nal][2Nal]GYKRKF[2Nal]-NH2)
fluorescence intensity of cellular ROS (ROS production) (MN-11 cells [1]): did not change
plasma membrane integrity (PI entering cells) (MN-11 cells [2]): can cause damage to the plasma membrane integrity
HMGB1 in supernatant (PC 9 cells; PC 9, 2 × IC50, 1 hour): nothing is observed
HMGB1 in supernatant (PC 9 cells; PC 9, 2 × IC50, 2 hours): can be detected
HMGB1 in supernatant (PC 9 cells; PC 9, 2 × IC50, 4 hours): obviously be seen
